Tests used:
Settings in all cases: Table VIa; host plants sprayed; solution of 400 ppm and dilutions
Cercospora beticola = test: In vivo fungicidal activity, Sugar Beet Cercospora (SBC); note: ranges in brackets are in %
Plasmopara viticola = test: In vivo fungicidal activity, Grape Downy Mildew (GDM); note: ranges in brackets are in %
Alternaria solani = test: In vivo fungicidal activity, Tomato Early Blight (TEB); note: ranges in brackets are in %
Venturis inaequalis = test: In vivo fungicidal activity, Apple Scab (AS)
Pyricularia oryzae = format: in vivo
Septoria nodorum = test: In vivo fungicidal activity, Wheat Blotch (WSN)
Description: Test compounds are dissolved in acetone and diluted with deionized water containing about 0.05% TWEEN 20®, a polyoxyethylene sorbitan monolaurate surfactant manufactured by Atlas Chemical Industries, to give a concentration of 400 ppm. Subsequent dilutions are made with an 0.05% aqueous solution of TWEEN 20®.
Host plants are sprayed with test solution, dried and inoculated with fungi. When disease symptom development is optimal, the plants are rated for disease control according to the rating scale shown below. Each test contains inoculated treated plants, inoculated untreated plants and a reference standard. When more than one test is run, the data are averaged.

Botrytis cinerea = test: In vivo fungicidal activity, Pepper Botrytis (PB); note: ranges in brackets are in %
[1] = system: Erysiphe graminis f. sp. tritici; test: In vivo fungicidal activity, Wheat Powdery Mildew (WPM)

Compound | disease control rating SBC (Cercospora beticola) | disease control rating GDM (Plasmopara viticola) | disease control rating TEB (Alternaria solani) | disease control rating AS (Apple Scab) (Venturis inaequalis) | disease control rating RB (Pyricularia oryzae) | disease control rating WSN (Septoria nodorum) | disease control rating PB (Botrytis cinerea) | disease control rating WPM [1]
CC(C)(C)C1CCC2(CC1)CC(CCNC1CCCCCC1)CO2 (stereo not drawn) [Compound 195] | 7 (90-95) | 5 (60-74) | 0 (0) | 6 (75-89) | 7 (90-95) | 7 (90-95) | 5 (60-74) | 7 (90-95)
CCCCN(CCCC)CCC1COC2(CCC(C(C)(C)C)CC2)C1 (stereo not drawn) [Compound 196] | 8 (96-99) | 5 (60-74) | 0 (0) | 5 (60-74) | 6 (75-89) | 7 (90-95) | 5 (60-74) | 9 (100)
CCCCC(CC)NCCC1COC2(CCC(C(C)(C)C)CC2)C1 (stereo not drawn) [Compound 197] | 7 (90-95) | 7 (90-95) | 0 (0) | 5 (60-74) | 0 (0) | 7 (90-95) | 8 (96-99) | 8 (96-99)
CC(C)(C)C1CCC2(CC1)CC(CCNC1CCC3CCCCC3C1)CO2 (stereo not drawn) [Compound 198] | 8 (96-99) | 6 (75-89) | 6 (75-89) | 6 (75-89) | 0 (0) | 8 (96-99) | 7 (90-95) | 8 (96-99)
CN(CCC1COC2(CCC(C(C)(C)C)CC2)C1)C1CCCCC1 (stereo not drawn) [Compound 199] | 3 (30-44) | 5 (60-74) | 4 (45-59) | 6 (75-89) | 0 (0) | 7 (90-95) | 7 (90-95) | 8 (96-99)
CCN(CCC1COC2(CCC(C(C)(C)C)CC2)C1)C1CCCCC1 (stereo not drawn) [Compound 200] | 8 (96-99) | 5 (60-74) | 0 (0) | 7 (90-95) | 0 (0) | 8 (96-99) | 8 (96-99) | 8 (96-99)
CCCCCC(C)N(C)CCC1COC2(CCC(C(C)(C)C)CC2)C1 (stereo not drawn) [Compound 201] | 6 (75-89) | 7 (90-95) | 0 (0) | 6 (75-89) | 0 (0) | 5 (60-74) | 3 (30-44) | 8 (96-99)
CCCCCC(C)N(CC)CCC1COC2(CCC(C(C)(C)C)CC2)C1 (stereo not drawn) [Compound 202] | 7 (90-95) | 5 (60-74) | 0 (0) | 6 (75-89) | 0 (0) | 5 (60-74) | 7 (90-95) | 8 (96-99)
CC(C)(C)C1CCC2(CC1)CC(CCN1CCCCC1)CO2 (stereo not drawn) [Compound 203] | 8 (96-99) | 0 (0) | 6 (75-89) | 0 (0) | 0 (0) | 6 (75-89) | 8 (96-99) | 8 (96-99)
